{"source": "ChEMBL document CHEMBL1201862", "about": "“PubChem BioAssay data set” (2004)", "key": {"[1]": {"molecular_target": "T1, Small ubiquitin-related modifier 1 (Homo sapiens, UniProt P63165)", "T1 sequence (P63165 whole entry)": "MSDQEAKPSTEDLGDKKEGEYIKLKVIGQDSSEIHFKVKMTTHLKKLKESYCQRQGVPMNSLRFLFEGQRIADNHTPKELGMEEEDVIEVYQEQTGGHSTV", "assay": "SUMO1 protein-protein binding blockers, potency – biochemical, FRET, dose response (AID 624383)", "type": "functional", "conditions": "read-out: IC50_Mean"}, "[2]": {"molecular_target": "T1, Small ubiquitin-related modifier 1", "assay": "SUMO1 protein interaction blockers, potency – biochemical, fluorescence polarization, uHTS hits, dose response (AID 624382)", "type": "functional", "conditions": "read-out: IC50_Mean"}, "[3]": {"molecular_target": "T2, Apoptotic protease-activating factor 1 (Homo sapiens, UniProt O14727)", "T2 sequence (O14727 whole entry)": "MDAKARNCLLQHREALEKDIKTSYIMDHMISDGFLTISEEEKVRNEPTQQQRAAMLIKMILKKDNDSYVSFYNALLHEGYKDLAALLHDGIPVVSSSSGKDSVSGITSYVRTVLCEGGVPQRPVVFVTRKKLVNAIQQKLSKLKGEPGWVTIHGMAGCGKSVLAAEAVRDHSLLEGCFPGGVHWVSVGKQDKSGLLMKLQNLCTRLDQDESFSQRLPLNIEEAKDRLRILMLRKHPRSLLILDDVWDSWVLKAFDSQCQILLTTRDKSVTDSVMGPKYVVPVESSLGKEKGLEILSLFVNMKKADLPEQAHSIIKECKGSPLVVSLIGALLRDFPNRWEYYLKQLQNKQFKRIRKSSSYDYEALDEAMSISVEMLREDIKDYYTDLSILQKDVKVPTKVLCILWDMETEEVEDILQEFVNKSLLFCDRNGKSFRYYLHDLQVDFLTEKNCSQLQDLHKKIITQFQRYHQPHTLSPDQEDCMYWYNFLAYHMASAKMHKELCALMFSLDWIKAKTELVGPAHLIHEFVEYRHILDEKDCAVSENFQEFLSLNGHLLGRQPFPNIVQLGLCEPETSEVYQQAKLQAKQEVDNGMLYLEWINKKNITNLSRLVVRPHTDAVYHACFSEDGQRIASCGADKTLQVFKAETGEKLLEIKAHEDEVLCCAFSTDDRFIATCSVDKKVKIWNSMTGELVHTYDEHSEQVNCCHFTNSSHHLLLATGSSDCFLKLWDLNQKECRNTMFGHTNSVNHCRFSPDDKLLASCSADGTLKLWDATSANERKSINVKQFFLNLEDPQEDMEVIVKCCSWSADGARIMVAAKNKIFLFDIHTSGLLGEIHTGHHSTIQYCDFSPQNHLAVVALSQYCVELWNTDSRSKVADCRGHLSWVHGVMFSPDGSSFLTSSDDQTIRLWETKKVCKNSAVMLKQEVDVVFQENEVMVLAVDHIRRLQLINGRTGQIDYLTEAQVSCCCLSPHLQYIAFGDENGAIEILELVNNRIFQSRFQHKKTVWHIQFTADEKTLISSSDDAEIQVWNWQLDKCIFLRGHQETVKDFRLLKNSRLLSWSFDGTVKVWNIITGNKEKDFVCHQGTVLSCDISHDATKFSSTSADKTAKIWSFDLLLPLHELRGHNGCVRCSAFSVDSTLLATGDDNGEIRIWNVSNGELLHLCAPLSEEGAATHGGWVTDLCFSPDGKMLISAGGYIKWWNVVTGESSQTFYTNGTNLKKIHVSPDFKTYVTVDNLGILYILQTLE", "type": "functional"}, "P388/ADR": {"system": "P388/ADR", "assay": "cells", "type": "functional", "conditions": "Mus musculus"}, "SN12K1": {"system": "SN12K1", "assay": "cells", "type": "functional", "conditions": "Homo sapiens"}, "[4]": {"molecular_target": "T3, Ubiquitin-conjugating enzyme E2 N (Homo sapiens, UniProt P61088)", "T3 sequence (P61088 whole entry)": "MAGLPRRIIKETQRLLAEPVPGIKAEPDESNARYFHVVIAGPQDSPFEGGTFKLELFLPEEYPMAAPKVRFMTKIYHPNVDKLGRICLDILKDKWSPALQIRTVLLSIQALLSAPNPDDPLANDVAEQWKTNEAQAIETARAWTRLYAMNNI", "type": "functional"}, "INS1": {"system": "INS1", "assay": "INS-1E survival protection against cytokine death – cell-based, luminescence, retest, dose response (AID 449756);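 also: cell death triggered by IL-1 beta plus TNF-alpha plus IFN-gamma mixture; protective hits raise ATP signal compared with cytokine alone wells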", "type": "functional", "conditions": "Rattus norvegicus"}, "[5]": {"molecular_target": "Heat shock protein HSP 90-alpha (Homo sapiens, UniProt P07900)", "type": "functional, organism-based"}, "[6]": {"molecular_target": "T4, DNA repair protein RAD52 homolog (Homo sapiens, UniProt P43351)", "T4 sequence (P43351 whole entry)": "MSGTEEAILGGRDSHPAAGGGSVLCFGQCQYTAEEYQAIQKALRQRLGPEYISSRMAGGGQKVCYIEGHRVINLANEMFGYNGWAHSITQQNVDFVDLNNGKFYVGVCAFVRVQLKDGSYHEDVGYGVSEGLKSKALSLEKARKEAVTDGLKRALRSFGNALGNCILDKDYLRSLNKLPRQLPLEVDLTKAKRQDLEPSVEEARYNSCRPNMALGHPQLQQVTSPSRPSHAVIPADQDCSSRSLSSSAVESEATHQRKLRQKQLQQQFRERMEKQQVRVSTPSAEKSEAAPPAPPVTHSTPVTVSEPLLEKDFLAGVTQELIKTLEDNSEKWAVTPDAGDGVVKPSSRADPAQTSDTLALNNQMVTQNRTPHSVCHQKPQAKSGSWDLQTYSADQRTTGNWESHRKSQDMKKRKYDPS", "type": "functional, biochemical"}, "Bcl-2-related protein A1": {"molecular_target": "T5, Bcl-2-related protein A1 (Mus musculus, UniProt Q07440)", "T5 sequence (Q07440 whole entry)": "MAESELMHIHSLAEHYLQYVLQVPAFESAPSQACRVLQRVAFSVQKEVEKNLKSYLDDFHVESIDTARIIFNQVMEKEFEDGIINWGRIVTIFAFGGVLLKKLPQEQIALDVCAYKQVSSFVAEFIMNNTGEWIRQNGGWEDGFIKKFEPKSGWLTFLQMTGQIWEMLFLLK", "type": "functional"}, "[7]": {"molecular_target": "T3, Ubiquitin-conjugating enzyme E2 N", "type": "functional", "remark": "listed apart in the source"}, "[8]": {"molecular_target": "26S proteasome non-ATPase regulatory subunit 14 (Homo sapiens, UniProt O00487)", "sequence (O00487 whole entry)": "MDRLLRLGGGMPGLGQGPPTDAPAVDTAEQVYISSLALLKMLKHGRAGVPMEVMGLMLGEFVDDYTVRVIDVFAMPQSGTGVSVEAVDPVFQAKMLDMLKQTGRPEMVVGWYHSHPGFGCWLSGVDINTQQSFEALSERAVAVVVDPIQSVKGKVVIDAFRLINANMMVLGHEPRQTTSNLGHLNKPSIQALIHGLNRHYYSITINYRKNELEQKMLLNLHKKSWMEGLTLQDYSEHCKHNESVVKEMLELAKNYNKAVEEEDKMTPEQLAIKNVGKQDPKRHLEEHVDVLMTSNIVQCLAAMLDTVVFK", "assay": "inhibition of proteasome subunit RPN11 – biochemical, fluorescence polarization, uHTS hits, confirmation (AID 602368)", "type": "functional"}, "Prothrombin": {"molecular_target": "Prothrombin (Bos taurus, UniProt P00735)", "assay": "thrombin protease inhibitors – biochemical, fluorescence polarization, uHTS hits, dose response (AID 602369)", "type": "functional"}, "[9]": {"molecular_target": "72 kDa type IV collagenase (Homo sapiens, UniProt P08253)", "sequence (P08253 whole entry)": "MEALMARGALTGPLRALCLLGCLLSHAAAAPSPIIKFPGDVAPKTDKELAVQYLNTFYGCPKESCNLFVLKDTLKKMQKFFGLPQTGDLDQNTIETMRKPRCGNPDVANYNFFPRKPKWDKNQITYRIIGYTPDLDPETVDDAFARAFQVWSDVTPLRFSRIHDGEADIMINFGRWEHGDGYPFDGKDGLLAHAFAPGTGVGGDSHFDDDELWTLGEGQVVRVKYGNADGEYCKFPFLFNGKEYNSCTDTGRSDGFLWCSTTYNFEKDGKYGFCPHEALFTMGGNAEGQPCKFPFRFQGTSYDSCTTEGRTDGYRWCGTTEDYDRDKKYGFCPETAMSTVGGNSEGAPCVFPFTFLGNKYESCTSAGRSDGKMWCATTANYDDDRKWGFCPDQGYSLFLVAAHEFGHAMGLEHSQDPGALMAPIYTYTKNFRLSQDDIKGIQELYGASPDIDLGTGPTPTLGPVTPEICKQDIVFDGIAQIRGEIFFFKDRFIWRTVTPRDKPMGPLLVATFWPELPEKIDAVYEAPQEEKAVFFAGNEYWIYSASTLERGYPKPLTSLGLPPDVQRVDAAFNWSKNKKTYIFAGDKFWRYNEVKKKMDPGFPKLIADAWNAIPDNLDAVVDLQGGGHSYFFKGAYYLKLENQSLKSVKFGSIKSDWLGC", "assay": "Dose Response validation of uHTS RPN11 inhibitor hits using a MMP-2 Fluorescence assay.", "type": "functional"}, "[10]": {"assay": "activation of miR-122 Renilla sensor silencing – cell-based, Huh7 psiCHECK-miR122, Renilla luciferase, cherry-picked, dose response (AID 651956);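 also: huh7 hepatoma cells stably carrying a psiCHECK-2 miR-122 sensor plasmid; renilla luciferase signal reporting endogenous miR-122 activity after 48 h compound exposure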", "type": "functional"}, "[11]": {"molecular_target": "T6, Carboxy-terminal domain RNA polymerase II polypeptide A small phosphatase 1 (Homo sapiens, UniProt Q9GZU7)", "T6 sequence (Q9GZU7 whole entry)": "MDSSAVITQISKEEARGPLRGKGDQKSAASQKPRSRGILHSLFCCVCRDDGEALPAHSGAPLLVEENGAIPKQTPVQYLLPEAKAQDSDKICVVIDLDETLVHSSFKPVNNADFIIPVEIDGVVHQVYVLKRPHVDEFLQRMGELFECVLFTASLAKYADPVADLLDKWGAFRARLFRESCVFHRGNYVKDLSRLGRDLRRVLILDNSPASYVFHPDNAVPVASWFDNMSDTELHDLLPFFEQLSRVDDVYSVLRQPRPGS", "assay": "CTDSP1 inhibitors, concentration-response, biochemical, absorbance readout, ultra-high-throughput screen actives (AID 540297)", "type": "functional"}, "Aminopeptidase N": {"molecular_target": "T7, Aminopeptidase N (Plasmodium falciparum FcB1/Columbia, UniProt O96935)", "T7 sequence (O96935 whole entry)": "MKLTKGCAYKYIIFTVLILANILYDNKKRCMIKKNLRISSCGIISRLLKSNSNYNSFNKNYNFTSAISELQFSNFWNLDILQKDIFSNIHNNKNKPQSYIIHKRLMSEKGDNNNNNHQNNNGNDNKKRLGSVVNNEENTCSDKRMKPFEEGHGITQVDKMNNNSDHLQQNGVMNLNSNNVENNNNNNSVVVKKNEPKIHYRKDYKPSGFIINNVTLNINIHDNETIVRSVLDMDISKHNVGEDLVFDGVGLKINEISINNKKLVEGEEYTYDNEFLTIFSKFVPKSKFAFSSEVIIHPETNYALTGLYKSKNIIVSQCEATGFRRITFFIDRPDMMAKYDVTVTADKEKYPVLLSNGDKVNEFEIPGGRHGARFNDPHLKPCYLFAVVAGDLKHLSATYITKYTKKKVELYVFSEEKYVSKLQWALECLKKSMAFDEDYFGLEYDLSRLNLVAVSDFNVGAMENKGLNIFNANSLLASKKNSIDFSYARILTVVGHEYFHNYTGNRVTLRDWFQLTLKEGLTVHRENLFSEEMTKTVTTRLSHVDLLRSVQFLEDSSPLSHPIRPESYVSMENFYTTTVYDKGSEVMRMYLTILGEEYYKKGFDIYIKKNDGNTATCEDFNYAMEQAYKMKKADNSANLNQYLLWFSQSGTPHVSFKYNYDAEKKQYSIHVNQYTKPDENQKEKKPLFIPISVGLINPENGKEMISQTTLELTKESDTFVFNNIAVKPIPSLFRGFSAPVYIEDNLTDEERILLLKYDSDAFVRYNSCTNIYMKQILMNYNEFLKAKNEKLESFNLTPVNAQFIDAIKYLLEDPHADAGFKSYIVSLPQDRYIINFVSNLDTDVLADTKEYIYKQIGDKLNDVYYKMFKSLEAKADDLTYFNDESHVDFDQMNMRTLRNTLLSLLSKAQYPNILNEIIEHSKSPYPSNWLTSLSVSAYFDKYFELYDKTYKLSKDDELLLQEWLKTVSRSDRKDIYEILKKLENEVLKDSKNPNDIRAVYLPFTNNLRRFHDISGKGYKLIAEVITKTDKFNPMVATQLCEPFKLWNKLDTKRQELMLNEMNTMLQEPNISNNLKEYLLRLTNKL", "assay": "malaria alanyl aminopeptidase activity blockers – biochemical, fluorogenic H-Leu-NHMec substrate, 1536-well (AID 1445)", "set-up": "species or system Plasmodium falciparum 3D7, 3D7"}}, "note": "Calls of active or inactive are those of the source."}
{"smiles": "COc1ccc(-n2c(SCC(=O)Nc3cccc(S(N)(=O)=O)c3)nc3ccccc3c2=O)cc1OC", "values": [{"measurement": "IC50", "setting": "[1]", "result": "4.19 µM (active)"}, {"measurement": "IC50", "setting": "[2]", "result": "> 66.6 µM (inactive)"}]}
{"smiles": "C=CCn1c(COc2cccc(C)c2)nnc1SC(C)C(=O)NC1CC1", "note": "(centres undefined)", "values": [{"measurement": "IC50", "setting": "[3]", "result": "> 100 µM (inactive)"}]}
{"smiles": "C/C(=C/c1c(C)[nH]c(=O)[nH]c1=O)C(=O)O", "values": [{"measurement": "GI50", "setting": "P388/ADR", "result": "813 µM (inactive)"}, {"measurement": "GI50", "setting": "SN12K1", "result": "> 1370 µM (inactive)"}]}
{"smiles": "Cc1cc(C(C)(C)CC(C)(C)C)ccc1OCCOCC[N+](C)(C)Cc1ccccc1", "values": [{"measurement": "IC50", "setting": "[4]", "result": "8.92 µM (active)"}, {"measurement": "AC50", "setting": "INS1", "result": "2.41 µM (active)"}, {"measurement": "AC50", "setting": "[5]", "result": "7.56 µM (active)"}, {"measurement": "AC50", "setting": "[6]", "result": "20.4 µM (active)"}, {"measurement": "IC50", "setting": "Bcl-2-related protein A1", "result": "14.9 µM (active)"}, {"measurement": "IC50", "setting": "[3]", "result": "21.3 µM (active)"}, {"measurement": "IC50", "setting": "[7]", "result": "9.49 µM (active)"}]}
{"smiles": "Cn1cncc1C#Cc1ccc2cc(C3(O)CCCCC3)oc(=O)c2c1", "values": [{"measurement": "IC50", "setting": "[8]", "result": "32.5 µM (active)"}, {"measurement": "IC50", "setting": "Prothrombin", "result": "53.3 µM (active)"}, {"measurement": "IC50", "setting": "[9]", "result": "> 100 µM (inactive)"}]}
{"smiles": "CCC(=O)N(C)C[C@@H]1[C@H](c2ccc(-c3ccccc3F)cc2)[C@H](CO)N1C(C)=O", "values": [{"measurement": "AC50", "setting": "[10]", "result": "49.5 µM (active)"}]}
{"smiles": "CCCCCCC(=O)Nc1nc(C)c(-c2csc(Nc3cc(OC)ccc3OC)n2)s1", "values": [{"measurement": "IC50", "setting": "[1]", "result": "11.2 µM (active)"}, {"measurement": "IC50", "setting": "[2]", "result": "> 66.6 µM (inactive)"}]}
{"smiles": "CN1C(=O)c2cc(NC(=O)c3cccc(F)c3)ccc2OC[C@@H]2O[C@H](CC(=O)O)CC[C@H]21", "values": [{"measurement": "AC50", "setting": "[10]", "result": "51.2 µM (active)"}]}
{"smiles": "COc1ccccc1N1C(=N)S/C(=C\\c2ccc(-c3ccccc3C(=O)O)o2)C1=O", "values": [{"measurement": "IC50", "setting": "[8]", "result": "24.8 µM (active)"}, {"measurement": "IC50", "setting": "Prothrombin", "result": "68.5 µM (active)"}, {"measurement": "IC50", "setting": "[11]", "result": "8.51 µM (active)"}, {"measurement": "IC50", "setting": "[9]", "result": "> 100 µM (inactive)"}, {"measurement": "IC50", "setting": "Aminopeptidase N", "result": "21.7 µM (active)"}]}
